For series [1], the system named is mice. Put plainly: Effect on the spontaneous motor activity (Borsy), sedative effect. Format: in vivo, mouse. As to conditions: Mus musculus, po, 0.5 h; mice, orally, 30 minutes; read-out: ID50, spontaneous motor activity. The procedure: 2.1. Effect on the spontaneous motor activity
The test was carried out according to the method of Borsy et al. Groups consisting of 3 mice each were treated orally with different doses of the compounds to be tested. Then the test animals were placed into a 10-channel Dews system equipment. In this equipment the number of interruptions of infrared beam within 30 minutes was counted. […] Int. Pharmacodyn. 124, 1 (1960)].

Series [2] deals with gastric-acid secretion. Put plainly: Gastric-acid-secretion test (Shay). It counts as in vivo, rat. The note with it: po; rat, p.o., 4 hours after ligature; read-out: Acid-secretion inhibition, ED50. On the procedure:
2. […] The liberated gastric-acid content was determined by titration 4 hours after the ligature of the duodenum.

In series [3] the test system is Male Wistar rats. Put plainly: Vogel test (drinking conflict test), anxiolytic effect. Format: in vivo, rat (Wistar). As to conditions: for minimal effective dose: ip, 0.5 h, rat, intraperitoneally, half an hour before testing, read-out: MED (minimum effective dose), Vogel test; for anxiolytic activity (in words): Vogel test, compared with Meprobamate or within the group. The procedure: 1.1. Vogel test (drinking conflict test)
The anxiolytic effect was tested by using the method of Vogel et al. Male Wistar rats of 160 to 180 g body weight were kept free of food and drinking water for 24 and 48 hours, respectively. Test and carrier substances were administered intraperitoneally half an hour before testing. Animals within the experimental chamber were provided with drinking water through an inserted tube. After the animals' each twenty lapping for water the device emitted a 2 mA intensity electric shock through the drinking tube. During 5 minutes the shocks tolerated by the animals in order to quench their thirst were counted. The effect of treatment was expressed as the % increase of the tolerated shocks. The minimum effective dose (MED) was determined for each test compound [Volge, J. R., Beer, B., Clody, D. E.: Psychopharmacologia (Berl.) 21, 1 (1971)].

The subject of series [4] is rat's parietal cell. The series can be described thus: 14C-aminopyrine accumulation by parietal cells. It counts as cell-based, rat (Wistar). As to conditions: stimulated rat parietal cells; read-out: ED50, inhibition of aminopyrine accumulation. The procedure: 4. Measurement of ^14 C-aminopyrine accumulation by parietal cells
Gastric mucosal cells were prepared from rat stomach. Wistar rats (130-160 g) were killed by decapitation, the stomachs were rapidly excised and their contents were washed out with saline. The stomachs were then everted and filled with 2.5 mg/ml of pronase containing buffer. These sacs were incubated for 60 minutes at 37° C. in carbogen gassed medium. This incubation was followed by gentle stirring at room temperature for 45 minutes by a magnetic stirrer in order to disperse the cells from the mucosa of the everted stomachs digested only from the serosal side. The viability of the cells was determined by trypan-blue exclusion test. The percentage of the parietal cells was determined on the basis of their morphological characteristics.
Acid production of the cells prepared in this way could be induced by cyclic AMP, histamine (in the presence of 3-isobutyl-1-methylxanthine) or carbachol. The acid production was assessed by measuring the accumulation of ^14 C-aminopyrine. The undissociated weak base can penetrate into the acid-containing compartments of the cells. […] Thus, the distribution of ^14 C-aminopyrine between the extracellular and intracellular spaces is an indirect quantitative index for the cellular acid production [W. Schepp, J. Schmidtler, C. […]

Series [5] is described as follows: Acute toxicity on mice (Litchfield and Wilcoxon). The note with it: mouse, in vivo, po. The procedure:
The test was carried out according to the method of Litchfield and Wilcoxon [Litchfield, J. T. and Wilcoxon, F. W.: J. Pharmacol. Exp. Ther., 96, 99 (1949)] by using white mice belonging to the CFLP strain and weighing 10 to 22 g, 10 animals per dose. The test compounds were administered orally in a volume of 20 cm^3 /kg.

A short description of series [6]: Acute toxicity on mice (Litchfield and Wilcoxon). As to conditions: mouse, in vivo, ip.
Series [7] relates to Male Wistar rats. Put plainly: Conditioned avoidance response inhibition, antipsychotic effect. Format: in vivo, rat (Wistar). The note with it: rat; for Inhibition of the conditioned reflex (%): 30 mg/kg p.o., ++ = p < 0.05. On the procedure:
Conditioned avoidance response inhibition
The antipsychotic (neuroleptic) effect was measured by the inhibition of the learned conditioned avoidance reflex. The male Wistar rats, used for the study, were of 120-150 g body weight at the commencement of learning. A shuttle box was used as experimental device; it consists of two parts, 24×24.5×23 cm each, separated by a wall with a 6×9 cm gate. In response to a sutiable warning stimulus, in order to avoid the punishing (unconditioned) stimulus, animals within the box passed through the gate from one part to the other. The warning, i.e. conditioned stimulus (CS), a white light (1 Hz) blinking for 15 seconds, was applied at the place of the actual animal existence. The unconditioned stimulus (US), in form of 0.6 mA intensity electric shock, was randomly applied to the paw during the last 5 seconds of the conditioned stimulus. The animal's movement during the CS and US from one part of the box to the other, was defined as avoidance and escape responses, respectively. Both responses ceased the actual stimulus and stopped the trial. The time elapsed until the next trial (intertrial interval, ITI) was 15 seconds. While one experiment was carried out daily, an experiment consisted of 80 trials. Learning efficiency was expressed as percentage of the successful to the total avoidances. Effect of the neuroleptic drugs was examined in animals with stabilized conditioned reflexes and with at least 75% learning efficiency. Dosing was carried out once a week, one hour before the measurement in the shuttle box. To calculate the neuroleptic effect (50% inhibiting dose, ID50) , results obtained after the treatment were compared to those obtained on the previous day (controls).

Series [8] deals with erosion of the stomach wall. The series can be described thus: Cytoprotective effect, ethanol erosion (Robert). Format: in vivo. As to conditions: rat; for ED50: po, 1 cm^3 abs. ethanol; for Ratio of acid-secretion inhibition and erosion inhibition: ratio of ED50 values, p.o. On the procedure: 3. The cytoprotective effect was determined according to the method of Robert [Robert, A.: Cytoprotection by prostaglandins. […] Rats weighing 200 to 250 g were used as test animals. 1 cm^3 of abs. ethanol was introduced to the stomach to produce an erosion of the stomach wall. The length and frequency of the lesions (erosion index and frequency) were measured and the percentage inhibition of lesion formation compared with vehicle-treated animals was calculated.

Series [9] concerns the target T1, H^+ /K^+ -ATP-ase (Sus scrofa, UniProt P19156).
T1 construct: on partially purified pig's microsome specimen; from tissue; host or cells: pig stomach, partially purified microsomes
The series can be described thus: H+/K+-ATP-ase inhibition on partially purified pig's microsome specimen. Format: biochemical. On the procedure:
1. H^+ /K^+ -ATP-ase inhibition on pig's stomach
The test was carried out according to the method of Rabon and Sachs [E. C. Rabon et al.: Preparation of gastric H^+ K^+ -ATP-ase, Methods in Enzymology, 157, 649-651 (1988)]. The activity of the prepared enzyme was measured both in the presence as in the absence of K^+ ions. The difference in the libaration of phosphorus representing the activity of the enzyme was measured.

The subject of series [10] is Male rats (Sprague Dawley). Put plainly: Elevated plus maze test on rat, anxiolytic effect. As to conditions: po, 1 h, p.o., pretreatment 60 minutes, read-out: MED (minimum effective dose), elevated plus maze. Format: in vivo, rat (Sprague Dawley). The procedure: 1.2. Elevated plus maze test on rat
The test was carried out with the aid of a wooden plus-shaped maze elevated to a height of 50 cm. Two arms--opposite to one another--were enclosed up to a height of 40 cm along their longer sides and at the end. The other two arms were without walls (open arms). The central 15×15 cm part was open. Male rats belonging to the Sprague Dawley strain and weighing 220 to 260 g were used as test animals. After pretreatment lasting 60 minutes the animals were placed into the central part of the maze. During the 5 minutes observation period the following parameters were recorded: […]
time spent on the open arms time spent on the closed arms number of open arm entries number of closed arm entries
The drug effect was expressed as percent increase of the time spent on the open arms and number of open arm entries. The minimum effective dose which caused a significant increase of the time spent on the open arms was calculated for every substance [Pelow, S., Chopin, P., File, S. E., Briley, M.: J. Neurosci. Methods 14, 149-167 (1985)].

SMILES strings stand for the structures. A value given as a limit tells only on which side of the number the result lay.

T1 sequence (P19156 2-1034 limits assumed): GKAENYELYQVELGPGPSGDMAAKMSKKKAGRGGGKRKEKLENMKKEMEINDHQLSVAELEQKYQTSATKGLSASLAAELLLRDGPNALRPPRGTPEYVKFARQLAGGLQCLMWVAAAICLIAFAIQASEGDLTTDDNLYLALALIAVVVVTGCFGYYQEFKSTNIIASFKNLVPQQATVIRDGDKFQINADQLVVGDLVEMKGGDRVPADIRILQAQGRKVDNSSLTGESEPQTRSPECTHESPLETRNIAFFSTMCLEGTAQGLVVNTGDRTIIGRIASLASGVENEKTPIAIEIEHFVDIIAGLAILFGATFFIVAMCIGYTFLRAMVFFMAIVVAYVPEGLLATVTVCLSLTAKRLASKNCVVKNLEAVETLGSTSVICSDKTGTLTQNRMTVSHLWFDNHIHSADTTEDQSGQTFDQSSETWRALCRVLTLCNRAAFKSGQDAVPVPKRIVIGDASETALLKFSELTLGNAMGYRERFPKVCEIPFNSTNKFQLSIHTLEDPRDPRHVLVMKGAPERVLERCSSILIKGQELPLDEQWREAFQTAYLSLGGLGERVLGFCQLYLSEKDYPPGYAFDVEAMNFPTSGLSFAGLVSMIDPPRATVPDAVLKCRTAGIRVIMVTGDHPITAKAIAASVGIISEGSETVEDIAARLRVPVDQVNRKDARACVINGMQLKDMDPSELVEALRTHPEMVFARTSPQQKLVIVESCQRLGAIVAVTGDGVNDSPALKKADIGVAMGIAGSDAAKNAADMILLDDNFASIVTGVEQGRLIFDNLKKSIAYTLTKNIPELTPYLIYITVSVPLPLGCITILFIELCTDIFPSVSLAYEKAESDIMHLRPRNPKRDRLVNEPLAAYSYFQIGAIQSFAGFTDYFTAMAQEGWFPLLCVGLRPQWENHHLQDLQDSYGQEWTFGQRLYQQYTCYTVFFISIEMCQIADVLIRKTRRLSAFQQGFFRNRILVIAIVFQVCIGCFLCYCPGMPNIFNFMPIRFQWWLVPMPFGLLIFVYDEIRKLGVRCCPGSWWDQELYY
T1 sequence (P18434 whole entry partner): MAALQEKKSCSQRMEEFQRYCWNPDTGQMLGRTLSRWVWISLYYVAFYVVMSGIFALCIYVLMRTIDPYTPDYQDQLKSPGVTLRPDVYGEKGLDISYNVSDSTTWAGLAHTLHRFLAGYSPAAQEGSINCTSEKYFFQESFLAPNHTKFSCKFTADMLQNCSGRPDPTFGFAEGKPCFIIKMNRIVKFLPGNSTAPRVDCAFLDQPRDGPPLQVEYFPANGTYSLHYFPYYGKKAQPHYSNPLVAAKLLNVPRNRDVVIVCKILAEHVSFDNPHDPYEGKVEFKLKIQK

`CC(C)CCC(/C=C/c1ccc(Cl)cc1)=N\OCCCN1CCCCC1` [Example 9, 1-(4-Chlorophenyl)-6-methyl-3-(E)-[3-(N-piperidinyl)-propoxyimino]-1-(E)-heptene]: the ED50 in series [1] is greater than 100 mg/kg; in [2], 107 mg/kg; in series [8], 5.9 mg/kg. The minimal effective dose in series [3] is greater than 30 mg/kg. The results for the IC50 in series [4] and in [9] were 50 nM and 12 µM, respectively. The LD50 at 336 h in series [5] is greater than 1000 mg/kg; in [6], 160 mg/kg. The “Inhibition of the conditioned reflex (%)” value in series [7] worked out at 16%. Moreover, the “Ratio of acid-secretion inhibition and erosion inhibition” value in series [8] stood at 18.1.
As to `CC(C)CC(/C=C/c1ccccc1)=N\OCCN1CCCCC1` [Example 10, 1-Phenyl-5-methyl-3-(E)-[2-(N-piperidinyl)-ethoxyimino]-1-(E)-hexene], the ED50 in [1] was greater than 100 mg/kg. For the same compound, in series [3], the “anxiolytic activity (in words)” value was “the most active members in the structural group”. Further, the values for the minimal effective dose in series [3] and in series [10] were 0.1 mg/kg and 10 mg/kg, respectively. Further, in series [7], the “Inhibition of the conditioned reflex (%)” value is given as 13%.
`CC(C)CC(/C=C/c1ccccc1)=N\OCCN(C)C` [Example 17, 1-Phenyl-5-methyl-3-(E)-[2-(dimethylamino)-ethoxyimino]-1-(E)-hexene]: the ED50 was greater than 100 mg/kg in series [1], 166 mg/kg in series [2] and 2.7 mg/kg in series [8]. Besides, in series [3], the minimal effective dose worked out at 30 mg/kg. The LD50 at 336 h in [5] was greater than 1000 mg/kg; in [6], 100 to 300 mg/kg. The “Inhibition of the conditioned reflex (%)” value in [7] came out at 40%. The “antipsychotic / conditioned-reflex-inhibiting activity (in words)” value in series [7] (in vivo) is on record as “slight conditioned-reflex-inhibiting activity”. Also, the “Ratio of acid-secretion inhibition and erosion inhibition” value in series [8] is listed as 61.4. In series [9], this compound registered an IC50 greater than 30 µM.
With `CCCC(/C=C/c1ccccc1)=N\OCCCN(C)C` [Example 21, 1-Phenyl-3-(E)-[3-(dimethylamino)-propoxyimino]-1-(E)-hexene], the ED50 in [1] is greater than 100 mg/kg. Also, in series [3], the “anxiolytic activity (in words)” value was “the most active members in the structural group” and the minimal effective dose came to 0.03 mg/kg. Moreover, the minimal effective dose in series [10] was 1 mg/kg. Further, in series [7], the “Inhibition of the conditioned reflex (%)” value is on record as 7%.
For the compound `CC(C)CCC(/C=C/c1ccc(Cl)cc1)=N\OCCCN1CCCC1` [Example 41, 1-(4-Chlorophenyl)-6-methyl-3-(E)-[3-(N-pyrrolidinyl)-propoxyimino]-1-(E)-heptene], the figures for the ED50 in series [2] and in [8] were less than 100 mg/kg and 2 mg/kg, respectively. In addition, the LD50 at 336 h in [5] is greater than 1000 mg/kg; in [6], 30 to 100 mg/kg. Moreover, the “Ratio of acid-secretion inhibition and erosion inhibition” value in series [8] was less than 50. The same compound gave an IC50 in [9] of 9 µM.
Consider `CCCC(C)(COC(N)=O)COC(N)=O` [Meprobamate, reference compound], for which the figures for the minimal effective dose in series [3] and in series [10] were 25 mg/kg and greater than 10 mg/kg, respectively.

Source of the values: US5486528A, “Basic ethers and process for the preparation thereof” (Egis Gyogyszergyar Rt., priority 1993, dated 1996).
